Assays:
[1] = tested on: DU145, human prostate cancer cells implanted in flanks; assay: tissue distribution in SCID mice bearing DU145 tumors; type: in vivo; details: for tissue distribution, blood / tissue distribution, bone / tissue distribution, brain / tissue distribution, heart / tissue distribution, kidney / tissue distribution, liver / tissue distribution, lung / tissue distribution, muscle / tissue distribution, pancreas / tissue distribution, spleen / tissue distribution, tumor: DU145 tumor-bearing SCID mice, tail vein, ave
Experimental: For the in vitro amino acid uptake studies, all cells can be grown to monolayer confluency in T-175 culture flasks [Corning, Corning, N.Y.] (approx. 1×10^8 cells/flask) in Dulbecco's Modified Eagle's Medium (DMEM) [Sigma, St. Louis, Mo.] in a humidified incubator (37° C., 5% CO2/95% air). Media are supplemented with 10% fetal calf serum [Hyclone, Logan, Utah], and antibiotics (10,000 U/ml penicillin and 10 mg/ml streptomycin) (Sigma, St. Louis, Mo.). For tissue culture passage, monolayer cells are detached by gentle trypsinization, resuspended in complete media, and split 1:10 into new T-flasks. Cultures are passaged weekly, and fed fresh media every 2 to 3 days. To initiate tumor growth in SCID mice, 1×10^6 cells are injected s.c. bilaterally into the flanks (inguinal region) of the recipient animals using a 1 ml syringe with a 27 gauge needle. Ex vivo experiments can be performed with animals containing tumors weighing between 500 mg and 1 g, as estimated by caliper measurement (tumor weight=(π/6)*abc, where a, b and c are the tumor length, width and height, respectively).
Tissue distribution of the compounds is measured in SCID mice (average weight, 20-25 g) bearing human tumors as follows. The candidate radioligands (20 uCi in 0.4 ml 0.9% NaCl) are injected into the tail vein of tumor-bearing mice. […] Tissues (blood, heart, liver, lungs, kidneys, bone, thyroid, muscle, brain and tumor) are excised, rinsed in saline, and blotted dry. The tissues are weighed, placed into 12×75 mm glass vials, the radioactivity determined with a gamma counter, and the percent dose/gram calculated. Total activities of blood and muscle are calculated by assuming that they account for 7% and 40% of the total body mass, respectively.
Tables 3-7 show the results of the biodistribution studies with the separate enantiomers of anti-2-[^18F]FACPC and racemic anti-2-[^18F]FACBC as a comparison in SCiD mice implanted in their flanks with A549, human lung cancer cells and DU145, human prostate cancer cells.

[2] = tested on: U87 Human Glioma cells; assay: in vitro amino acid uptake in U87 cells; type: cell-based
Description: (§1) Compounds have been evaluated in vitro for tumor binding specificity (i.e. uptake cells) using a variety of tumor cell lines available in the art, along with reference compounds such as Me-AlB and BCH. Detailed description of these assays can be found in Martarello et al. (2002) Journal of Medicinal Chemistry, 45:2250-2259 and McConathy et al. (2003) Nuclear Medicine and Biology, 30:477-490. These so called “amino acid uptake studies” are typically carried out with radiolabeled compounds in at least five phenotypically different human tumor cell lines (e.g., A549 lung carcinoma, MB468 breast carcinoma, DU145 prostate carcinoma-androgen independent, LnCap-androgen dependent, SKOV3 ovarian carcinoma, U87 glial blastoma, MIA PaCa-2 pancreas carcinoma, MDA MB231 breast carcinoma). These tumor cell lines can be grown either in vitro or in vivo with severe combined immunodeficiency (SCID) mice as a host. The afore-mentioned tumor cell lines are available at the Winship Cancer Institute of Emory University.
(§2) For the in vitro amino acid uptake studies, all cells can be grown to monolayer confluency in T-175 culture flasks [Corning, Corning, N.Y.] (approx. 1×10^8 cells/flask) in Dulbecco's Modified Eagle's Medium (DMEM) [Sigma, St. Louis, Mo.] in a humidified incubator (37° C., 5% CO2/95% air). […]
(§3) In the in vitro studies the uptake rate of each amino acid compound is measured in each tumor line, as well as the dominant transport mechanisms of each tumor cell line. After trypsinization, cells are resuspended in serum-free media, then counted on a hemocytometer, with viability assessed through Trypan blue staining. […] The vials are placed in a Cobra-II gamma counter (Packard, Meriden, Conn.), with the activity per cell number determined. […] Saline washes are performed as described above, and the filtered cells' radioactivity determined on the gamma counter. […]
(§4) The uptake of all compounds were measured in human and rat cancer cell lines and the dominant transport (“A” and “L”) mechanism of each culture were determined. […]

[3] = tested on: SKOV3 Human Ovarian carcinoma cells; assay: in vitro amino acid uptake in SKOV3 cells; type: cell-based
Description: as §1, §2, §3, §4

With `NC1(C(=O)O)CCC1[18F]` (racemic) [racemic anti-2-[^18F]FACBC] the “tissue distribution, blood” value ([1]; 15 min) was 2.80 percent dose/gram, the “tissue distribution, bone” value ([1]; 15 min) was 1.06 percent dose/gram and the “tissue distribution, brain” value ([1]; 15 min) was 0.17 percent dose/gram. For the same compound, the “tissue distribution, heart” value ([1]; 15 min) was 2.07 percent dose/gram, the “tissue distribution, kidney” value ([1]; 15 min) was 6.82 percent dose/gram and the “tissue distribution, liver” value ([1]; 15 min) was 2.32 percent dose/gram. The “tissue distribution, lung” value ([1]; 15 min) was 3.35 percent dose/gram, the “tissue distribution, muscle” value ([1]; 15 min) was 0.83 percent dose/gram and the “tissue distribution, pancreas” value ([1]; 15 min) was 29.02 percent dose/gram. The “tissue distribution, spleen” value ([1]; 15 min) was 4.38 percent dose/gram, the “tissue distribution, tumor” value ([1]; 15 min) was 2.95 percent dose/gram and the “tissue distribution, blood” value ([1]; 30 min) was 1.86 percent dose/gram. For the same compound, the “tissue distribution, bone” value ([1]; 30 min) was 1.63 percent dose/gram, the “tissue distribution, brain” value ([1]; 30 min) was 0.16 percent dose/gram and the “tissue distribution, heart” value ([1]; 30 min) was 1.82 percent dose/gram. The “tissue distribution, kidney” value ([1]; 30 min) was 4.47 percent dose/gram, the “tissue distribution, liver” value ([1]; 30 min) was 2.09 percent dose/gram and the “tissue distribution, lung” value ([1]; 30 min) was 2.32 percent dose/gram. The “tissue distribution, muscle” value ([1]; 30 min) was 1.00 percent dose/gram, the “tissue distribution, pancreas” value ([1]; 30 min) was 29.29 percent dose/gram and the “tissue distribution, spleen” value ([1]; 30 min) was 4.74 percent dose/gram. For the same compound, the “tissue distribution, tumor” value ([1]; 30 min) was 3.54 percent dose/gram, the “tissue distribution, blood” value ([1]; 60 min) was 0.80 percent dose/gram and the “tissue distribution, bone” value ([1]; 60 min) was 2.22 percent dose/gram. For the same compound, the “tissue distribution, brain” value ([1]; 60 min) was 0.18 percent dose/gram, the “tissue distribution, heart” value ([1]; 60 min) was 1.32 percent dose/gram and the “tissue distribution, kidney” value ([1]; 60 min) was 1.82 percent dose/gram. For the same compound, the “tissue distribution, liver” value ([1]; 60 min) was 1.23 percent dose/gram, the “tissue distribution, lung” value ([1]; 60 min) was 1.18 percent dose/gram and the “tissue distribution, muscle” value ([1]; 60 min) was 1.15 percent dose/gram. For the same compound, the “tissue distribution, pancreas” value ([1]; 60 min) was 15.01 percent dose/gram, the “tissue distribution, spleen” value ([1]; 60 min) was 2.85 percent dose/gram and the “tissue distribution, tumor” value ([1]; 60 min) was 2.57 percent dose/gram. For the same compound, the “tissue distribution, blood” value ([1]; 120 min) was 0.39 percent dose/gram, the “tissue distribution, bone” value ([1]; 120 min) was 0.66 percent dose/gram and the “tissue distribution, brain” value ([1]; 120 min) was 0.13 percent dose/gram. For the same compound, the “tissue distribution, heart” value ([1]; 120 min) was 0.82 percent dose/gram, the “tissue distribution, kidney” value ([1]; 120 min) was 0.78 percent dose/gram and the “tissue distribution, liver” value ([1]; 120 min) was 0.43 percent dose/gram. The “tissue distribution, lung” value ([1]; 120 min) was 0.46 percent dose/gram, the “tissue distribution, muscle” value ([1]; 120 min) was 0.72 percent dose/gram and the “tissue distribution, pancreas” value ([1]; 120 min) was 5.92 percent dose/gram. The “tissue distribution, spleen” value ([1]; 120 min) was 0.87 percent dose/gram, the “tissue distribution, tumor” value ([1]; 120 min) was 1.85 percent dose/gram and the “uptake of radioactivity in the tumors compared with muscle” value ([1]; DU145 tumors, SCID mice, time points sampled post injection) was “greater than muscle”. The “% Dose uptake per 0.5 × 10−6 Cells” value [2] was 8.3 % Dose/0.5 × 10^−6 and the “% Dose uptake per 0.5 × 10−6 Cells” value [3] was 2.2 % Dose/0.5 × 10^−6.

For `N[C@]1(C(=O)O)CCC[C@@H]1[18F]` (single isomer, unassigned; enantiomer 1) [Enantiomer 1, anti-2-[^18F]FACPC], the “in vivo uptake compared with racemic 2-[^18F]FACBC” value ([1]; DU 145 cells implanted subcutaneously in flanks of SCID mice) was “significantly higher in vivo uptake than racemic 2-[^18F]FACBC”, the “tissue distribution, blood” value ([1]; 15 min) was 3.69 percent dose/gram and the “tissue distribution, bone” value ([1]; 15 min) was 2.89 percent dose/gram. For the same compound, the “tissue distribution, brain” value ([1]; 15 min) was 0.70 percent dose/gram, the “tissue distribution, heart” value ([1]; 15 min) was 3.76 percent dose/gram and the “tissue distribution, kidney” value ([1]; 15 min) was 8.83 percent dose/gram. For the same compound, the “tissue distribution, liver” value ([1]; 15 min) was 4.34 percent dose/gram, the “tissue distribution, lung” value ([1]; 15 min) was 4.38 percent dose/gram and the “tissue distribution, muscle” value ([1]; 15 min) was 2.23 percent dose/gram. The “tissue distribution, pancreas” value ([1]; 15 min) was 47 percent dose/gram, the “tissue distribution, spleen” value ([1]; 15 min) was 7.4 percent dose/gram and the “tissue distribution, tumor” value ([1]; 15 min) was 3.82 percent dose/gram. For the same compound, the “tissue distribution, blood” value ([1]; 30 min) was 2.44 percent dose/gram, the “tissue distribution, bone” value ([1]; 30 min) was 3.06 percent dose/gram and the “tissue distribution, brain” value ([1]; 30 min) was 0.49 percent dose/gram. The “tissue distribution, heart” value ([1]; 30 min) was 2.71 percent dose/gram, the “tissue distribution, kidney” value ([1]; 30 min) was 5.36 percent dose/gram and the “tissue distribution, liver” value ([1]; 30 min) was 2.74 percent dose/gram. For the same compound, the “tissue distribution, lung” value ([1]; 30 min) was 2.78 percent dose/gram, the “tissue distribution, muscle” value ([1]; 30 min) was 2.31 percent dose/gram and the “tissue distribution, pancreas” value ([1]; 30 min) was 28 percent dose/gram. The “tissue distribution, spleen” value ([1]; 30 min) was 6.70 percent dose/gram, the “tissue distribution, tumor” value ([1]; 30 min) was 3.54 percent dose/gram and the “tissue distribution, blood” value ([1]; 60 min) was 1.7 percent dose/gram. The “tissue distribution, bone” value ([1]; 60 min) was 2.58 percent dose/gram, the “tissue distribution, brain” value ([1]; 60 min) was 0.62 percent dose/gram and the “tissue distribution, heart” value ([1]; 60 min) was 2.2 percent dose/gram. For the same compound, the “tissue distribution, kidney” value ([1]; 60 min) was 4.07 percent dose/gram, the “tissue distribution, liver” value ([1]; 60 min) was 1.96 percent dose/gram and the “tissue distribution, lung” value ([1]; 60 min) was 1.91 percent dose/gram. For the same compound, the “tissue distribution, muscle” value ([1]; 60 min) was 2.15 percent dose/gram, the “tissue distribution, pancreas” value ([1]; 60 min) was 22 percent dose/gram and the “tissue distribution, spleen” value ([1]; 60 min) was 2.79 percent dose/gram. For the same compound, the “tissue distribution, tumor” value ([1]; 60 min) was 3.07 percent dose/gram, the “% Dose uptake per 0.5 × 10−6 Cells” value [2] was 28 % Dose/0.5 × 10^−6 and the “% Dose uptake per 0.5 × 10−6 Cells” value [3] was 7 % Dose/0.5 × 10^−6.
